Data reported in the METLIN SMRT retention time set (Domingo-Almenara et al. 2019).

Assay: gradient 5% acetonitrile 3 min, to 50% in 2 min, to 85% in 15 min, held 3 min, 100 µL/min
Conditions: column: Zorbax Extend-C18 2.1 x 50 mm; eluents: water / acetonitrile, 0.1% formic acid
Outline: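 Retention times of pure standards were taken from adduct peaks that were selected by computer and manually inspected. Over 3 months, mixtures of ~100 molecules were run by HPLC–quadrupole time-of-flight mass spectrometry in positive and negative ionization mode. The Zorbax Extend-C18 column (2.1 × 50 mm, 1.8 μm) ran at 100 μL/min in water and acetonitrile, each containing 0.1% formic acid, with 40 μL dead volume and 900 μL dwell volume.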

| Structure (SMILES) | RP-LC retention time [s] |
| --- | --- |
| CC(C)CC(=O)N1CCC(c2noc(-c3ccncc3)n2)C1 (stereo not drawn) | 719 |
| CC(=O)c1ccc(NC(=O)c2cnc(-c3ccccc3)nc2-c2ccncc2)cc1 | 795 |
| CC1(C)Cc2cccc(OCC(=O)N3CCN(CCn4cccn4)CC3)c2O1 | 583 |
| O=C(NCCCN1CCN(Cc2ccccc2)CC1)c1cn2c3c(ccc(Cl)c3c1=O)OCC2 | 634 |
| O=C(Nc1cccc(-c2noc(C3CC3)n2)c1)c1n[nH]c2c1CCCC2 | 941 |
| Cc1cnc(C2CN(Cc3cccc(C#N)c3)C2)n1Cc1ccccc1 | 582 |
| Cc1cccc(Nc2nc(C)c(C(=O)NC3CCN(Cc4ccccc4)CC3)s2)n1 | 645 |
| C[C@]12CC[C@@H]3c4ccc(O)cc4C[C@@H](CCCCCCCCCS(=O)CCCC(F)(F)C(F)(F)F)[C@H]3[C@@H]1CC[C@@H]2O (stereo partly drawn) | 1250 |
| Cc1ccccc1CNS(=O)(=O)c1c(C)sc(C)c1-c1n[nH]c(C)c1C | 1060 |
| Cc1cc2c(=O)n(CC(=O)NCc3cccc(Cl)c3)c3cccnc3n2n1 | 727 |
| CC1=C(c2cccc(Cl)c2)S(=O)(=O)N=C1N1CCCN(C(=O)NC(C)C)CC1 | 802 |
| O=C1CCc2cc(NC(=O)c3ccc([N+](=O)[O-])cc3Cl)ccc2N1 | 807 |
| Cc1cc(C)c2c(-n3cccc3)nn(CC(=O)NC(C)CCc3ccccc3)c2n1 (stereo not drawn) | 1080 |
| COc1cc(CSc2nc(CC(=O)NCc3cccs3)cs2)cc(OC)c1 | 873 |
| CC1CCCN(C(=O)c2csc(-c3ccc(N4CCCC4)nc3)n2)C1 (stereo not drawn) | 660 |
| COCCN1C(=O)[C@H]2CN(Cc3cccc(C#N)c3)C[C@H]2C1=O | 607 |
| CCCN(C(=O)C1CCC(C)CC1)c1nc(-c2ccccc2)cs1 (stereo not drawn) | 748 |
| COc1ccc(C2Cn3nnc(C(=O)NC4CCCCCC4)c3CO2)cc1 (stereo not drawn) | 1040 |
| N#CCCc1ccc2c(c1)-c1[nH]c3ccc([N+](=O)[O-])cc3c1CC(=O)N2 | 778 |

| Structure (SMILES) | RP-LC retention time [s] |
| --- | --- |
| COc1ccccc1-n1ccn(Cc2nc(-c3ccccc3C)no2)c(=O)c1=O | 850 |
| CNC(=O)c1cc[nH]c1C1CCCN(C(=O)c2ccc(Br)o2)C1 (stereo not drawn) | 674 |
| O=C1[C@H]2CN(Cc3ccc(F)cc3Cl)C[C@H]2C(=O)N1Cc1ccc2c(c1)OCO2 | 992 |
| CCOC(=O)N1CCN(c2cc(C(=O)O)c3cc(NC(=O)c4cccc(C)c4)ccc3n2)CC1 | 649 |
| COc1ccc2c(c1)C1(CCN(C(=O)c3ccccc3F)C1)C(=O)N2 (stereo not drawn) | 703 |
| Cc1cc(S(=O)(=O)N2CCCCC2c2nncn2C)ccc1F (stereo not drawn) | 717 |
| Cc1nc(OCC(=O)Nc2ccc(Cl)cc2F)c2ccccc2n1 | 789 |
| CCS(=O)(=O)c1ccc2c(c1)N(Cc1nc(-c3ccc(OC(C)C)cc3)no1)C(=O)CO2 | 991 |
| O=C(CN1c2ccc(F)cc2-c2ccccc2S1(=O)=O)NCCN1CCOCC1 | 624 |
| O=C(c1cc(-c2ccccc2)n[nH]1)N1CCN(c2cc(-c3ccccc3)ncn2)CC1 | 609 |
| O=c1c(=O)n(-c2ccccc2)ccn1Cc1nc(-c2ccc(F)c(Cl)c2)no1 | 894 |
| Cc1cccc(Nc2nc(CC(=O)NCc3ccccc3OC(F)(F)F)cs2)n1 | 708 |
| C#CCSc1nc2ccccc2c2nc(-c3ccncc3)nn12 | 977 |
| CC(C)Cn1cc(CCNS(=O)(=O)c2cc(Cl)ccc2Cl)c2cccnc21 | 1040 |
| COc1ccc(Cl)cc1C(=O)N1CCCN(C2CCN(CC3CC3)C2=O)CC1 (stereo not drawn) | 553 |
| CC(C)n1cnc(S(=O)(=O)N2CCC(C(=O)NC3CCCCCC3)CC2)c1 | 736 |
| Cn1cnc2ccc(-c3noc(-c4cccc(NC(=O)c5ccco5)c4)n3)cc21 | 682 |
| COC(=O)c1c(C)[nH]c(C(=O)N2CCCC(C(=O)NCc3ccccc3)C2)c1C (stereo not drawn) | 732 |
| O=c1c2cc(-c3cccs3)nn2cnn1Cc1nc(-c2ccc(F)cc2)no1 | 1040 |

| Structure (SMILES) | RP-LC retention time [s] |
| --- | --- |
| Cc1ccc(-c2noc(CCN3CCN(c4ccccn4)CC3)n2)cc1 | 625 |
| O=C(C1CCN(c2ncnc3c2oc2ccccc23)CC1)N1CCC(Cc2ccccc2)CC1 | 995 |
| O=C(Nc1ccc(F)cc1F)C1(CCO)CCN(c2ncccn2)C1 (stereo not drawn) | 611 |
| O=[N+]([O-])c1cccnc1Oc1cccnc1 | 716 |
| COc1ccccc1-c1nc(C2CCN(C(=O)c3cc4ccccc4[nH]3)CC2)no1 | 930 |
| Cc1ccc(-c2noc(-c3ccc(=O)n(CC(=O)OC(C)C)n3)n2)cc1 | 1050 |
| O=C(NC1CCN(C(=O)c2cc(-c3cccs3)[nH]n2)CC1)c1cccs1 | 695 |
| COc1ccc(-c2csc(NC(=O)C3(c4ccccc4)CCCC3)n2)cc1OC | 1170 |
| COc1ccc(NC(=O)c2cc(C(C)C)n(-c3nc4ccccc4s3)n2)cc1OC | 1200 |
| Cc1nc2c(sc3nc(-c4ccccc4)ccc32)c(=O)n1CC(=O)NCc1ccc(F)cc1 | 994 |
| c1ccc(CN2CCN(c3c4c(nc5nc(-c6ccccc6)nn35)CCCC4)CC2)cc1 | 668 |
| CN1C2CCC1CC(OC(=O)[C@H](CO)c1ccccc1)C2 (stereo partly drawn) | 667 |
| Cc1ccc(-c2noc(-c3nc(Cc4ccccc4)no3)n2)cc1 | 1240 |
| CN(C)C(=O)C1CCN(c2nc3ccc(-c4cccc(F)c4)nc3s2)CC1 | 905 |
| O=c1oc2c(O)c(O)ccc2c2c1CCC2 | 655 |
| Cn1cc(-c2cc3n(n2)CCC(=O)N3CCCC(=O)NCc2cccnc2)c2ccccc21 | 616 |
| CCc1nc2cc(-c3noc(Cc4ccc(OC)c(Cl)c4)n3)ccc2o1 | 1120 |
| O=C(Nc1c2c(nn1-c1cccc(Cl)c1)CSC2)C(=O)N1CCCC1 | 914 |

Now from value to compound:

| RP-LC retention time [s] | Structure (SMILES) |
| --- | --- |
| 1200 | Cc1ccc(C2c3[nH]c4ccccc4c3CCN2C(=O)c2cccs2)cc1 (stereo not drawn) |
| 655 | O=C(C1=CCN(Cc2ccccc2)CC1)N1CCN(c2ccc(F)cc2)CC1 |
| 772 | CC(C)(C)c1cc(NC(=O)CSCc2ccccc2)n(CCO)n1 |
| 712 | Cc1nn(C)c(C)c1C(=O)N1CC(n2cc(COc3ccc(F)cc3)nn2)C1 |
| 812 | CC(C)CNC(=O)C1CCN(C(=O)Nc2ccc(NC(=O)Nc3ccccc3)cc2)CC1 |
| 796 | Cc1cc2nc(C(F)(F)F)c(=O)n(C(C)C(=O)N3CCN(c4ccccn4)CC3)c2cc1C (stereo not drawn) |
| 661 | CC(C)NC(=O)N1CCCC(c2nc(C3CCOCC3)no2)C1 (stereo not drawn) |
| 674 | COc1cc(CNC(=O)C2CCN(Cc3cn(C)c4ccccc34)CC2)cc(OC)c1 |
| 822 | COC(=O)c1c(NCc2ccc(F)cc2F)c2cccc(Cl)c2[nH]c1=O |
| 714 | Cc1cccc(-c2nc3ccccn3c2NC(=O)NCc2ccc(F)cc2)c1 |
| 1230 | Cc1ccc(-c2noc(Cc3nnc(-c4ccc(C)c(C)c4)o3)n2)cc1C |
| 1100 | Cc1sc(-c2cc(C(F)(F)F)[nH]n2)cc1S(=O)(=O)N1CCC(C)CC1 |
| 878 | CCCn1cc(C(=O)NCC(C)C)c2nn(-c3ccccc3)c(=O)c-2c1 |
| 1280 | Cc1ccc(-c2nc(N)n(C(=O)c3ccc(C(C)(C)C)cc3)n2)cc1 |
| 952 | COc1c(C(=O)NC(C)C)sc2ccc(F)cc12 |
| 784 | CCn1nnc2c(N3CCc4cc(OC)c(OC)cc4C3C)ncnc21 (stereo not drawn) |

| RP-LC retention time [s] | Structure (SMILES) |
| --- | --- |
| 749 | C=CCNC(=O)c1snc(C(=O)NC(C)C)c1N |
| 1030 | Cc1cc(Cl)ccc1NS(=O)(=O)c1ccc(-c2c(C)noc2C)cc1 |
| 994 | CCn1nc(C(=O)Nc2nc3c(SC)cccc3s2)cc1C |
| 566 | COc1cc(CCC(=O)N2C[C@@H](C(N)=O)[C@H](c3n[nH]c(C)n3)C2)on1 |
| 724 | CCOC(=O)C1=C(C)NC(=O)NC1c1c(F)cccc1Cl (stereo not drawn) |
| 886 | Cc1nc(N2CCN(c3ncccn3)CC2)nc2c1C(=O)CCC2 |
| 678 | Cn1ccc2c(cc(C(=O)NCc3ccccc3F)n2C)c1=O |
| 1020 | Cc1c(C(=O)Nc2ccnn2Cc2ccco2)oc2cc(Br)ccc12 |
| 1080 | O=c1c2sccc2n(Cc2nc(-c3ccc(Cl)c(F)c3)no2)c(=O)n1-c1ccc(F)cc1 |
| 610 | Cc1ccc(NC(=O)Cc2cn3cc(F)ccc3n2)c(C)c1 |
| 781 | CCCCN1CCCC1CNC(=O)c1cc(C#N)c2ccccc2c1OC (stereo not drawn) |
| 696 | COc1ccc(C2(C(=O)N3CCN(C(=O)N4C[C@H]5C[C@H](C4)[C@H]4CCCC(=O)N4C5)CC3)CC2)cc1 |
| 701 | Cc1cc(=O)n(CC(=O)Nc2cccc(Cl)c2)c(N2CCCCC2)n1 |
| 1090 | COc1ccc(CN2C=C(C(=O)OCc3noc(-c4ccccc4F)n3)C(C)=NS2(=O)=O)cc1 |
| 1150 | CCc1ccc(-c2csc(Nc3ccc(S(=O)(=O)Nc4cc(OC)nc(OC)n4)cc3)n2)cc1 |
| 870 | COc1ccc(F)cc1S(=O)(=O)N1CCC(OCc2noc(C3CCCO3)n2)CC1 (stereo not drawn) |
